Test results as given in article PMC11530130, “Peripherally restricted PICK1 inhibitor mPD5 ameliorates pain behaviors in murine inflammatory and neuropathic pain models” (JCI Insight, 2024).
“And” between values parts separate entries of the source, which are not always exact repeats. Equal entries are not always repeated.

Legend:
[1] = tested on: mice, CFA model of inflammatory pain; assay: Single exposure place preference (sePP), CFA mice; type: in vivo, mouse; parameters: time spent in the paired compartment, individual mice: reference not given here
Method: On days 6-8, the escape hole was moved
90 degrees, and all mice went through the second bout of training. On day nine, a second probe trial was performed testing the reversal learning of the mice.
Cancer induced bone pain was induced as described in the “Induction of cancer induced bone pain (CIBP model)"-section. For the assessment of limb use, all mice from one cage were placed in an empty transparent plastic box and left for ten min to habituate. One mouse at a time was moved by tunnel handling or scooping to an identical plastic box for the limb use test. […]
gait, 3 Insignificant limping, 2 Significant limping and shift in bodyweight towards the healthy limb 1 Significant limping and partial lack of use of ipsilateral leg 0 Total lack of use of ipsilateral leg. A score of 0 was used as a humane endpoint. Urine and faeces were cleaned from the plastic box with a dry paper towel between mice from the same cage, and a new plastic box was used for mice from different cages. The limb use test was video filmed for later […]
Assessment of static weight bearing. […]
Initial perception of the drugs was measured by single exposure place preference experiments performed in an elongated three compartment apparatus (67.5 cm x 24 cm) with a biased design of different floor textures and wall patterns and a neutral zone in the middle. […]

[2] = Solubility in PBS by visual inspection
Method: SUPPORTING INFORMATION: Method Section.
Sex as a biological variable.
All peptides were ordered from WuXI AppTec (Shanghai, China) or TAG-Copenhagen […]
Assessment of solubility and stability of mPD5.
Solubility was determined by visual inspection of samples dissolved in increasing concentration in 10 mM PBS as judged by full transparency and monophasic appearance.
Stability was addressed by […] for four concentrations (2, 20, 50, and 200 µM), by leaving mPD5 in PBS at 5 °C and 25 °C for 30 days followed by HPLC-UV-MS.
Protein expression and purification.
Full length rat PICK1 (pET41) was, as described earlier (1), expressed in BL21-DE3-pLysS and grown at 37 °C, induced at OD600= 0.6 with 1 mM IPTG, and grown for 16 hours at 20 °C.
Cultures were harvested and re-suspended in 50 mM Tris, 125 mM NaCl, 2 mM DTT (Sigma), 1% Triton X-100 (Sigma), 20 µg/mL DNAse 1 and half a tablet of cOmplete protease inhibitor cocktail (Roche) pr. 1 L culture. The resuspended pellets were frozen at -80 °C for later purification. […] PICK1 was eluted on ice and concentration was measured on a NanoDrop 3000.
Fluorescence polarization binding. […]
binding surface 96 well plates (Sigma-Aldrich, Ref. no. 3686). The plates were incubated 20 min on ice and the fluorescence polarization was measured on an Omega POLARstar plate reader (BMG LABTECH) using excitation filter of 485 nm and long pass emission filter of 520 nm. […]

CCCCCCCCCCCCCC(=O)N(CCOCCOCCC(=O)N[C@@H](Cc1c[nH]cn1)C(=O)N[C@@H](Cc1c[nH]c2ccccc12)C(=O)N[C@@H](CC(C)C)C(=O)N[C@@H](CCCCN)C(=O)N[C@H](C(=O)O)C(C)C)CCOCCOCCC(=O)N[C@@H](Cc1c[nH]cn1)C(=O)N[C@@H](Cc1c[nH]c2ccccc12)C(=O)N[C@@H](CC(C)C)C(=O)N[C@@H](CCCCN)C(=O)N[C@H](C(=O)O)C(C)C [mPD5, myristoyl-NPEG4-(HWLKV)2]
time in the paired compartment compared with the PBS animals (sePP) ([1]; CFA animals, s.c. 30 μmol/kg in the gray (paired) compartment): significantly more time in the paired compartment | time spent in the paired compartment, individual mice ([1]; CFA mice conditioned with 30 μmol/kg): 1.043 and 0.9432 and 1.1179 and 0.8953 and 1.389 and 1.4664 and 0.991 and 1.199 and 1.802 and 0.8487 and 1.092 and 1.425 | solubility [2]: ≥ 250000 µg/mL and ~130000 µM
